Source: patent publication US20110071124A1, “Compounds that Inhibit Production of sAPPB and AB and Uses Thereof” (The Trustees of Columbia University in the City of New York, priority 2008, published 2011)

How the values were obtained:
Assay type in all cases: cell-based, mouse
[1] = tested on: sAPPβ in Tg2576 primary cortical neurons; assay: sAPPβ IP-Western in Tg2576 primary cortical neurons; details: LDN-0057228 20 μM, CNS-2 5 μM, 24 hours
Experimental: (§1) FIG. 17A-B. LDN-0057228 and CNS-2 reduce Aβ40 and sAPPβ in Tg2576 primary neurons. Primary cortical neurons were cultured from P0 APPsw transgenic pups (Tg2576). DIV-14 neurons were treated for 24 hours with LDN-0057228 or CNS-2 at the indicated concentrations. Data from two independent experiments were pooled. A) Media was collected for Aβ40 ELISA. Raw Aβ40 values were normalized to total protein to control for variations in plating density or any cytotoxicity resulting from the compounds. B) sAPPβ in the media was immunoprecipitated with sβsw antibody and visualized on Western blot with LN27.
CNS-2 and LDN-0057228 were evaluated in the Tg2576 pup system (FIG. 17). Primary cortical neurons were harvested from P0 Tg2576 pups. Each pup yielded 3 wells on a 12-well plate at a plating density of 0.8×10^5 cells per well. After genotyping, neurons from each transgenic pup (APPsw +/−) were treated with DMSO, LDN-0057228 (20 μM), or CNS-2 (5 μM) at DIV-14 for 24 hours. Data from two independent experiments were pooled, representing primary neurons from 4 transgenic pups. LDN-0057228 (20 μM) reduced Aβ40 by 65% (p<0.001) and CNS-2 (5 μM) reduced Aβ40 by 60% (p=0.001) (FIG. 17A).

[2] = tested on: Aβ40 in Lenti-APPsw infected primary cortical neurons; assay: Aβ40 ELISA in Lenti-APPsw infected primary cortical neurons; details: 24 hours
Experimental: FIG. 15A-D. LDN-0057228 reduces Aβ40 and sAPPβ in primary neurons. DIV-14 primary cortical neurons from wild-type mice were incubated for 24 hours with primary culture media containing lentivirus harboring APPsw. After infection, neurons were incubated for 48 hours with 1:1 fresh to conditioned media to allow for APP expression. Neurons were then treated with LDN-0057228 at 20 μM for 24 hours in triplicate. A) Media was collected for Aβ40 ELISA. Raw Aβ40 values were normalized to APP to control for variations in lentiviral infection efficiency. B) Cell lysates were probed with 6E10 antibody to visualize the transduced full-length APP. C) sAPPβ from neuron culture media was immunoprecipitated with sβsw antibody and probed with LN27. D) Quantification of sAPPβ, normalized to APP. Data in A) and […]) represent mean+s.d. of 3 wells. Bands from B) and C) were quantified using ImageJ software.
FIG. 16A-B. CNS-2 and LDN-0057228 reduce Aβ40 in primary neurons. DIV-14 primary cortical neurons from wild-type mice were incubated for 24 hours with primary culture media containing lentivirus harboring APPsw. After infection, neurons were incubated for 48 hours with 1:1 fresh to conditioned media to allow for APP expression. Neurons were then treated for 24 hours with the indicated compound and concentration. A) Media was collected for Aβ40 ELISA. Raw Aβ40 values were normalized to APP to control for variations in lentiviral infection efficiency. B) Cell lysates were probed with 6E10 antibody to visualize the transduced full-length APP.
Lenti-APPsw infected primary cortical neurons were selected for the initial round of physiological experiments due to the relatively large batches of wild-type primary cortical neurons that were routinely harvested in the lab, the ease of lentiviral packaging. Primary cortical neurons were harvested from wild-type P0 pups using established protocols.
The Lenti-APPsw vector was co-transfected into HEK293 T cells with ViraPower packaging mix (Invitrogen) to generate the lentivirus. Lentiviral-mediated transduction of APPsw in primary neurons was performed by adding neuron primary culture media containing the lentiviral particles to wild-type DIV-14 primary neurons (FIG. 14). After 24 hours, neurons were incubated with media for 72 hours prior to collecting for Aβ40 measurement. Two batches of virus (LV-1 and LV-2) were tested, showing that there is batch-to-batch variation in the viral titer.
Using this experimental paradigm, LDN-0057228 was tested at 20 μM concentration to confirm the sAPPβ- and Aβ-lowering activity of the compound (FIG. 15). The protocol was modified slightly to allow for 24-hour compound treatment. […]

[3] = tested on: Aβ40 in Tg2576 primary cortical neurons; assay: Aβ40 ELISA in Tg2576 primary cortical neurons; details: 24 hours, normalized to total protein
Experimental: as §1
Culturing primary neurons from Tg2576 pups offers the advantage of equal APP expression, but suffers the drawback of lower yield since only half the pups contains the transgene. Furthermore, because neurons from each pup has to be plated separately, plating density and neuronal survivability may vary from mouse to mouse. Thus, total protein was used to normalize the data.
CNS-2 and LDN-0057228 were evaluated in the Tg2576 pup system (FIG. 17). Primary cortical neurons were harvested from P0 Tg2576 pups. Each pup yielded 3 wells on a 12-well plate at a plating density of 0.8×10^5 cells per well. After genotyping, neurons from each transgenic pup (APPsw +/−) were treated with DMSO, LDN-0057228 (20 μM), or CNS-2 (5 μM) at DIV-14 for 24 hours. […]

| Compound | sAPPβ as visualized by IP-Western [1] | reduction in Aβ40 levels ([2]; 20 μM, normalized to APP) | reduction in Aβ40 ([3]; 20 μM) | reduction in Aβ40 ([2]; 5 μM) | reduction in Aβ40 ([3]; 5 μM) |
| --- | --- | --- | --- | --- | --- |
| Fc1ccc(C(OCCN2CCC[C@H]2CNCCc2ccccc2)c2ccc(F)cc2)cc1 [LDN-0057228] | reduced sAPPβ | 75% | 65% |  |  |
| O=C(CCc1ccccc1)NC[C@@H]1CCCN1CCOC(c1ccc(F)cc1)c1ccc(F)cc1 [CNS-2] | reduced sAPPβ |  |  | > 80% | 60% |
